We go through 7 molecules from US20230131899A1, “INHIBITORS OF MICROBIALLY INDUCED AMYLOID” (Axial Therapeutics, Inc., priority 2020, published 2023).

The target of the experiment is T1, E. coli CsgA (Escherichia coli, UniProt P28307).
T1 construct: made in house; host or cells: E. coli NEB 3016 slyD::kan, pET11d
As to the kind of experiment: In vitro ThioflavinT assay of CsgA aggregation (CsgA ThT Assay). The experiment is classed as biochemical. The note with it: CsgA 2 μM, white plates; for remaining activity at 25 µM: compound 25 μM; for remaining activity at 100 µM: compound 100 μM. The procedure, abridged:
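Purified C-terminal His-tagged CsgA, monomerised by desalting and 30-kDa filtration, at 2-20 μM with 20-40 μM ThT in 50 mM potassium phosphate pH 7.3, 1% DMSO, compounds 3.125-200 uM; room temperature, fluorescence (ex 438/em 495 nm) read every 15 min. Background-subtracted signal expressed as percent inhibition versus vehicle at 6-6.5 or 8-9 h, or as percent control AUC.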

Setting [1] is: read-out: CsgA ThT Assay (2 μM CsgA) % Control Bmax 25 μM, activity range, class symbol.
Where [2] appears, read: read-out: CsgA ThT Assay (2 μM CsgA) % Control Bmax 25 μM, mean Bmax as percentage of DMSO control.
Where [3] appears, read: read-out: CsgA ThT Assay (2 μM CsgA) % Control Bmax 100 μM, activity range, class symbol.
[4] abbreviates: read-out: CsgA ThT Assay (2 μM CsgA) % Control Bmax 100 μM, mean Bmax as percentage of DMSO control.

Read-outs that look alike come from different tables or passages of the source. Bounds are passed on as bounds.

T1 sequence (P28307 23-151): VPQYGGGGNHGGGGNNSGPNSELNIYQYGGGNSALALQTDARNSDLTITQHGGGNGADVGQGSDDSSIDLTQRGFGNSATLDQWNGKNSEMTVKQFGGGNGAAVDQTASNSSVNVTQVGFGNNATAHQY

As to `O=C(O)C1CN(Cc2cccnc2)c2c(-c3cccc(C(F)(F)F)c3)c(Cc3cccc4ccccc34)c(Cl)c(=O)n21` (stereo not shown) [Compound 169, 6-chloro-7-(naphthalen-1-ylmethyl)-5-oxo-1-(pyridin-3-ylmethyl)-8-(3-(trifluoromethyl)phenyl)-1,2,3,5-tetrahydroimidazo[1,2-a]pyridine-3-carboxylic acid], the remaining activity at 25 µM under setting [1] is > 60% and the remaining activity at 25 µM under setting [2] came out at 77%. The remaining activity at 100 µM under setting [3] was > 60% and the remaining activity at 100 µM under setting [4] was 64%.
Take `O=C(O)C1CN(Cc2ccc(CO)cc2)c2c(-c3cccc(C(F)(F)F)c3)c(Cc3cccc4ccccc34)c(Cl)c(=O)n21` (stereo not shown) [Compound 170, 6-chloro-1-(4-(hydroxymethyl)benzyl)-7-(naphthalen-1-ylmethyl)-5-oxo-8-(3-(trifluoromethyl)phenyl)-1,2,3,5-tetrahydroimidazo[1,2-a]pyridine-3-carboxylic acid]: the remaining activity at 25 µM under setting [1] is > 60% and the remaining activity at 25 µM under setting [2] is 62%. The remaining activity at 100 µM is 31 to 60% under setting [3] and 38% under setting [4].
The matching figures for `CCCN1CC(C(=O)O)n2c(c(-c3cccc(C(F)(F)F)c3)c(Cc3cccc4ccccc34)c(C(N)=O)c2=O)S1(=O)=O` (stereo not shown) [Compound 172, 7-carbamoyl-8-(naphthalen-1-ylmethyl)-6-oxo-2-propyl-9-(3-(trifluoromethyl)phenyl)-3,4-dihydro-2H,6H-pyrido[1,2-e][1,2,5]thiadiazine-4-carboxylic acid 1,1-dioxide]: 11 to 31%, 26%, 11 to 31% and 17%.
The like results for `CN(C)C(=O)c1c(Cc2cccc3ccccc23)c(-c2cccc(C(F)(F)F)c2)c2n(c1=O)C(C(=O)O)CN(C)S2(=O)=O` (stereo not shown) [Compound 173, 7-(dimethylcarbamoyl)-2-methyl-8-(naphthalen-1-ylmethyl)-6-oxo-9-(3-(trifluoromethyl)phenyl)-3,4-dihydro-2H,6H-pyrido[1,2-e] [1,2,5] thiadiazine-4-carboxylic acid 1,1-dioxide] were, in that order, > 60%, 73%, 31 to 60% and 40%.
The matching figures for `O=C(O)C1CN(Cc2ccncc2)c2c(-c3cccc(C(F)(F)F)c3)c(Cc3cccc4ccccc34)c(Cl)c(=O)n21` (stereo not shown) [Compound 174, 6-chloro-7-(naphthalen-1-ylmethyl)-5-oxo-1-(pyridin-4-ylmethyl)-8-(3-(trifluoromethyl)phenyl)-1,2,3,5-tetrahydroimidazo[1,2-a]pyridine-3-carboxylic acid]: > 60%, 77%, 31 to 60% and 60%.
As for `CC(C)N1CC(C(=O)O)n2c(c(-c3cccc(C(F)(F)F)c3)c(Cc3cccc4ccccc34)c(C(N)=O)c2=O)S1(=O)=O` (stereo not shown) [Compound 175, 7-carbamoyl-2-isopropyl-8-(naphthalen-1-ylmethyl)-6-oxo-9-(3-(trifluoromethyl)phenyl)-3,4-dihydro-2H,6H-pyrido[1,2-e][1,2,5]thiadiazine-4-carboxylic acid 1,1-dioxide], the remaining activity at 25 µM runs as follows: under setting [1], 31 to 60%; under setting [2], 33%. Also, the remaining activity at 100 µM by setting is: under setting [3], 11 to 31%; under setting [4], 24%.
The matching figures for `NC(=O)c1c(Cc2cccc3ccccc23)c(-c2cccc(C(F)(F)F)c2)c2n(c1=O)C(C(=O)O)CN(C1CCCC1)S2(=O)=O` (stereo not shown) [Compound 176, 7-carbamoyl-2-cyclopentyl-8-(naphthalen-1-ylmethyl)-6-oxo-9-(3-(trifluoromethyl)phenyl)-3,4-dihydro-2H,6H-pyrido[1,2-e][1,2,5]thiadiazine-4-carboxylic acid 1,1-dioxide]: 11 to 31%, 25%, 11 to 31% and 24%.
